The supplement of paper PMC10307832

Assays:
Test in all cases: relative viability (nuclei count vs DMSO), 5 days (fraction); higher = more cells survive
[1] = compound: CN(C)C(=N)NC(=N)N [Metformin] + CC(C)C[C@H](NC(=O)[C@H](Cc1ccccc1)NC(=O)c1cnccn1)B(O)O [Bortezomib] (partner 0.002 µM)
Procedure, shortened: (§1)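 One day after seeding in 1536-well plates, lung cancer cell lines were dosed by pin tool. Dosing was either single-drug or a fixed anchor-drug dose plus five library-drug doses (not always all listed) in √10 steps. After 5 days, nuclei were stained in one fix-and-stain step and counted on 4× images, and relative viability is the nuclei count of treated wells over that of vehicle wells, given as the median of duplicate plates.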

[2] = compound: CN(C)C(=N)NC(=N)N [Metformin] + Nc1nc2[nH]cc(CCc3ccc(C(=O)N[C@@H](CCC(=O)O)C(=O)O)cc3)c2c(=O)[nH]1 [Pemetrexed] (partner 0.2 µM)
Procedure, shortened: as §1

[3] = compound: CN(C)C(=N)NC(=N)N [Metformin] + CC1(C)CCC(c2ccc(Cl)cc2)=C(CN2CCN(c3ccc(C(=O)NS(=O)(=O)c4ccc(N[C@H](CCN5CCOCC5)CSc5ccccc5)c(S(=O)(=O)C(F)(F)F)c4)cc3)CC2)C1 [Navitoclax] (partner 0.5 µM)
Procedure, shortened: as §1

[4] = compound: N#CC1(c2ccc(NC(=O)c3cccnc3NCc3ccncc3)cc2)CCCC1 [Apatinib] + N=C(N)NC(=N)NCCc1ccccc1 [Phenformin] (partner 250 µM)
Procedure, shortened: as §1

Row | Cell Line | relative viability ([1]; first compound 10 µM) | relative viability ([1]; first compound 31.62 µM) | relative viability ([1]; first compound 100 µM) | relative viability ([1]; first compound 316.23 µM) | relative viability ([1]; first compound 1000 µM) | relative viability ([2]; first compound 10 µM) | relative viability ([2]; first compound 31.62 µM) | relative viability ([2]; first compound 100 µM) | relative viability ([2]; first compound 316.23 µM) | relative viability ([2]; first compound 1000 µM) | relative viability ([3]; first compound 10 µM) | relative viability ([3]; first compound 31.62 µM) | relative viability ([3]; first compound 100 µM) | relative viability ([3]; first compound 316.23 µM) | relative viability ([3]; first compound 1000 µM) | relative viability ([4]; first compound 0.08 µM) | relative viability ([4]; first compound 0.253 µM) | relative viability ([4]; first compound 0.8 µM) | relative viability ([4]; first compound 2.53 µM) | relative viability ([4]; first compound 8 µM)
1 | NCI-H647 | 1.19 | 1.15 | 1.18 | 0.921 | 1.17 | 0.127 | 0.137 | 0.16 | 0.146 | 0.148 | 0.869 | 1.13 | 1.44 | 1.12 | 0.763 | 0.561 | 0.64 | 0.427 | 0.544 | 0.319
2 | NCI-H661 | 0.867 | 0.881 | 1.36 | 0.917 | 1.06 | 0.9 | 0.934 | 0.877 | 0.858 | 0.879 |  |  |  |  |  | 0.279 | 0.273 | 0.273 | 0.263 | 0.277
3 | HCC-366 | 1.09 | 1.11 | 1.01 | 1.02 | 1.12 | 0.13 | 0.21 | 0.139 | 0.162 | 0.158 | 1.12 | 1.12 | 1.06 | 0.991 | 1.06 | 0.635 | 0.61 | 0.578 | 0.525 | 0.456
4 | HOP-62 | 0.602 | 0.745 | 0.209 | 0.723 | 0.816 | 0.239 | 0.336 | 0.276 | 0.215 | 0.321 | 0.922 | 0.845 | 1.04 | 0.989 | 0.986 | 0.646 | 0.646 | 0.638 | 0.625 | 0.577
5 | A549 |  |  |  |  |  |  |  |  |  |  | 0.895 | 1.03 | 1.04 | 0.843 | 0.297 | 0.181 | 0.219 | 0.144 | 0.125 | 0.0802
6 | HCC-827 |  | 0.952 | 1.12 | 0.919 | 0.925 | 0.236 | 0.282 | 0.265 | 0.263 | 0.263 |  | 0.96 | 0.982 | 0.923 | 1.01 | 0.4 | 0.406 | 0.212 | 0.382 | 0.351
7 | NCI-H1395 |  |  |  |  |  | 1.05 | 1.1 | 0.998 | 0.624 | 0.488 | 1.11 | 1.32 | 1.06 | 0.958 | 1.1 | 0.464 | 0.419 | 0.454 | 0.412 | 0.459
8 | SK-MES-1 |  |  |  |  |  | 0.532 | 0.721 | 0.805 | 0.662 | 0.708 | 0.879 | 1.08 | 1.07 | 0.973 | 1.14 | 0.699 | 0.615 | 0.616 | 0.574 | 0.451
9 | NCI-H2023 |  | 1.03 | 0.964 |  | 1.1 | 0.185 | 0.219 | 0.226 | 0.187 | 0.205 |  | 0.973 | 0.876 |  | 0.567 | 0.384 | 0.481 | 0.404 | 0.329 | 0.301
10 | NCI-H1299 | 1.09 | 1.06 | 1.08 | 1.06 | 1.06 |  |  |  |  |  | 1.12 | 1.11 | 1.15 | 1.15 | 1.12 |  |  |  |  | 
11 | LCLC-97TM1 | 0.635 | 0.87 | 0.789 | 0.713 | 0.351 |  | 0.198 | 0.198 | 0.171 | 0.188 | 0.44 | 0.339 | 0.547 | 0.276 | 0.486 | 0.411 | 0.409 | 0.424 | 0.404 | 0.37
12 | NCI-H1993 | 1.09 | 1.19 | 1.12 | 1.18 | 1.39 | 0.521 | 0.507 | 0.588 | 0.558 | 0.633 | 1.04 | 1.04 | 1.28 | 0.968 | 1.25 | 0.533 | 0.555 | 0.528 | 0.485 | 0.567
13 | PC-3 [JPC-3] | 0.702 | 0.865 | 0.772 | 0.862 | 0.833 | 1.12 | 1.08 |  | 0.897 | 0.705 | 0.702 | 0.735 | 0.821 | 0.761 | 0.732 | 0.471 | 0.468 | 0.474 | 0.448 | 0.46
14 | NCI-H441 | 0.273 |  | 0.344 |  | 0.404 |  | 0.255 | 0.292 | 0.266 | 0.264 | 0.408 |  | 0.55 |  | 0.486 | 0.849 | 0.762 | 0.827 | 0.784 | 0.76
15 | NCI-H322M | 1.32 | 1.45 | 1.19 | 1.36 | 1.48 | 0.68 | 0.621 | 0.644 | 0.606 | 0.594 | 1.19 | 1.28 | 1.02 | 1.14 | 1.19 | 0.831 | 0.76 | 0.778 | 0.814 | 0.784
16 | NCI-H1651 | 0.989 | 1.15 | 1.16 | 1.04 | 1.08 | 0.445 | 0.62 | 0.608 | 0.53 | 0.599 | 1.14 | 1.38 | 1.27 | 1.21 | 1.46 | 0.319 | 0.322 | 0.309 | 0.288 | 0.316
17 | EKVX | 0.737 | 1.07 | 1.06 | 0.934 | 0.338 |  | 0.301 | 0.417 | 0.316 | 0.294 | 0.681 | 0.889 | 0.968 | 0.779 | 0.948 | 0.233 | 0.228 | 0.234 | 0.216 | 0.234
18 | CAL-12T | 1.16 | 0.935 | 1.02 | 1.06 | 1.15 | 1.05 | 1.04 | 1.26 | 1.13 | 0.97 |  | 1.35 | 1.14 | 1.29 | 1.09 | 0.636 | 0.638 | 0.565 | 0.542 | 0.467
19 | NCI-H358 |  |  |  |  |  | 0.156 | 0.182 | 0.146 | 0.162 | 0.179 |  |  |  |  |  | 0.316 | 0.353 | 0.321 | 0.377 | 0.383
